Assay results from paper PMC7366380, “Discovery of a Potent and Selective Covalent Inhibitor and Activity-Based Probe for the Deubiquitylating Enzyme UCHL1, with Antifibrotic Activity” (Journal of the American Chemical Society, 2020).
pIC50: −log10 of the molar value.

Experiments:
20 DUBs = experiment: Biochemical DUB selectivity profiling (FP and FI assays), whole panel
USP10 = USP10 (Homo sapiens, UniProt Q14694); experiment: biochemical
USP28 = target: T1, USP28 (Homo sapiens, UniProt Q96RU2); experiment: Biochemical DUB selectivity profiling assay: USP28; conditions: Ub-Lys-TAMRA 50 nM, buffer B; read-out: Biochemical IC50 range, USP28
T1 sequence (Q96RU2 1-1077): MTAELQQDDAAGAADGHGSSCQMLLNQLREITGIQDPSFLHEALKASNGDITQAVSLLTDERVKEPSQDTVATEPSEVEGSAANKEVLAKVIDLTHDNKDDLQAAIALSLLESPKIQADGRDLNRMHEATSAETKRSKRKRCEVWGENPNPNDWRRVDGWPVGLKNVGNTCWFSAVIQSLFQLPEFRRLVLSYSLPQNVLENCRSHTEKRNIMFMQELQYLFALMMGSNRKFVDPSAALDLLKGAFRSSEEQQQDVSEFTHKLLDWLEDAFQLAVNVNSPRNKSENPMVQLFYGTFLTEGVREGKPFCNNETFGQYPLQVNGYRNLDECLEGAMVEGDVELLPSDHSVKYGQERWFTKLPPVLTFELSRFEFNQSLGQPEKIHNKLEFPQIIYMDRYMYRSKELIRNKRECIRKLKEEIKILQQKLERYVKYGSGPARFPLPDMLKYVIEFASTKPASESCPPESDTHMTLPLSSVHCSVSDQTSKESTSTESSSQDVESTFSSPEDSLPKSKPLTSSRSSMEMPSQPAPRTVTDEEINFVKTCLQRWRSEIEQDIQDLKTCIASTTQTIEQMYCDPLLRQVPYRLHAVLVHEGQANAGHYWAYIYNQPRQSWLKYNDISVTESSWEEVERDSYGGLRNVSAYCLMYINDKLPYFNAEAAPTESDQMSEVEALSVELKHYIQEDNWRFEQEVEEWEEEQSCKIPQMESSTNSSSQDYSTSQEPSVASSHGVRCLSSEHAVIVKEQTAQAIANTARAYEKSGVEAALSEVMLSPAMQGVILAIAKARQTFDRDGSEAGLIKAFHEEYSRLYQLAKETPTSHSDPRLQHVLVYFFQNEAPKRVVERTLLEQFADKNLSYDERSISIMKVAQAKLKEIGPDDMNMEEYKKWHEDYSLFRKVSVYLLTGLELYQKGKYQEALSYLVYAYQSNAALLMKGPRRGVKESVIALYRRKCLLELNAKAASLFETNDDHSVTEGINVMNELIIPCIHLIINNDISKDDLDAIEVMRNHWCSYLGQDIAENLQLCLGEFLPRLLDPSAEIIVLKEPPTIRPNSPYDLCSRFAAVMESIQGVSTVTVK
Method: DUB Assay Substrate Substrate
Buffer Concentration (nM) […]
Sepharose® 4B resin (GE Healthcare).
10 kDa molecular weight cut-off (MWCO)).
Fractions containing protein
Protein concentration was […]
reaction volume of 21 μL. […]
compound (final concentration 5 nM).
IC50 values were determined
Biochemical DUB selectivity profiling assays […]
in 40 µL total reaction volume.

Chain of USP10 (Q14694 whole entry): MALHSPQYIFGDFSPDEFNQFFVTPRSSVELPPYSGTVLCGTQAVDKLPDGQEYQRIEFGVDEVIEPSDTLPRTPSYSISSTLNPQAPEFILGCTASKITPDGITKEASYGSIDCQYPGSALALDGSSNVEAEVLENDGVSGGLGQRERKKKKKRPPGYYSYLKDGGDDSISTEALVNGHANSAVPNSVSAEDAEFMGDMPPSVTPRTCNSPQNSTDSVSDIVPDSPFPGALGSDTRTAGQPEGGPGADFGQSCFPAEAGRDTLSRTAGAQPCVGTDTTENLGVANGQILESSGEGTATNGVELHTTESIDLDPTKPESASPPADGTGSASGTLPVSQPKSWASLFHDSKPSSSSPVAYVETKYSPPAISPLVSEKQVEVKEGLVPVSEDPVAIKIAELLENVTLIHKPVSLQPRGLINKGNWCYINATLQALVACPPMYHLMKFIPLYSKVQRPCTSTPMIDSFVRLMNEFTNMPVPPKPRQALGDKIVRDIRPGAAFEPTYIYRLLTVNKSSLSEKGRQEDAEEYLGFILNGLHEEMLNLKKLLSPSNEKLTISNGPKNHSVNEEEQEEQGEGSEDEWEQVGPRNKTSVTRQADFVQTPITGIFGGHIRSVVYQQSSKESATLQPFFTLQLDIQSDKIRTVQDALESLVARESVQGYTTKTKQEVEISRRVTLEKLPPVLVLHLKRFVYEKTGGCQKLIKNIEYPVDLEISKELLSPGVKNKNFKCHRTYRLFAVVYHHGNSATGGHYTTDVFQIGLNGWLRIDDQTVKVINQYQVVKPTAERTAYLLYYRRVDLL

Structure (SMILES) | activity/selectivity in cross-screening against 20 DUBs (20 DUBs) | pIC50 (USP10) | pIC50 (USP28)
N#CN1CCC[C@H]1C(=O)N1CCc2c(-c3c[nH]c4ncccc34)cccc21 [Compound 1] | exquisite selectivity | < 5.00 | < 5.00
C#Cc1cnc2[nH]cc(-c3cccc4c3CCN4C(=O)[C@@H]3CCCN3C#N)c2c1 [Compound 2] |  |  | < 5.00
N#CN1CCC[C@@H]1C(=O)N1CCc2c(-c3c[nH]c4ncccc34)cccc21 [Compound 3] | inactive | < 5.00 | 
CC(=O)O/N=C1\C(=O)N(Cc2cc(Cl)ccc2Cl)c2ccc(Cl)cc21 [LDN-57444, reference compound] |  | < 5.00 | < 5.00
